Source: PubChem BioAssay AID1963832 (Molecular Pharmacology Branch, DTP, NCI, 2024)

System: 885724-159-R-J1-PDC complex spheroid viability
Assay: Anticancer human tumor 885724-159-R-J1-PDC patient-derived pancreatic adenocarcinoma cell line growth inhibition [POLQ]
Conditions: for IC50: curve of first compound; for viability, T/C: stronger effect = lower value
In short: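 Growth inhibition in 3D: complex spheroids (tumor PDC, HUVEC, MSC) treated with POLQ inhibitor combinations; where Cmax unknown, highest tested concentration 10 microM, except SN-38 at 1 microM.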

[1] = second compound 0.0316 µM, first compound 0.0316 µM
[2] = second compound 0.0316 µM, first compound 0.1 µM
[3] = second compound 0.0316 µM, first compound 0.316 µM
[4] = second compound 0.0316 µM, first compound 1 µM
[5] = second compound 0.0316 µM, first compound 3.16 µM
[6] = second compound 0.0316 µM, first compound 10 µM
[7] = second compound 0.1 µM, first compound 0.0316 µM
[8] = second compound 0.1 µM, first compound 0.1 µM
[9] = second compound 0.1 µM, first compound 0.316 µM
[10] = second compound 0.1 µM, first compound 1 µM
[11] = second compound 0.1 µM, first compound 3.16 µM
[12] = second compound 0.1 µM, first compound 10 µM
[13] = second compound 0.316 µM, first compound 0.0316 µM
[14] = second compound 0.316 µM, first compound 0.1 µM
[15] = second compound 0.316 µM, first compound 0.316 µM
[16] = second compound 0.316 µM, first compound 1 µM
[17] = second compound 0.316 µM, first compound 3.16 µM
[18] = second compound 0.316 µM, first compound 10 µM
[19] = second compound 1 µM, first compound 0.0316 µM
[20] = second compound 1 µM, first compound 0.1 µM
[21] = second compound 1 µM, first compound 0.316 µM
[22] = second compound 1 µM, first compound 1 µM
[23] = second compound 1 µM, first compound 3.16 µM
[24] = second compound 1 µM, first compound 10 µM
[25] = second compound 3.16 µM, first compound 0.0316 µM
[26] = second compound 3.16 µM, first compound 0.1 µM
[27] = second compound 3.16 µM, first compound 0.316 µM
[28] = second compound 3.16 µM, first compound 1 µM
[29] = second compound 3.16 µM, first compound 3.16 µM
[30] = second compound 3.16 µM, first compound 10 µM
[31] = second compound 10 µM, first compound 0.0316 µM
[32] = second compound 10 µM, first compound 0.1 µM
[33] = second compound 10 µM, first compound 0.316 µM
[34] = second compound 10 µM, first compound 1 µM
[35] = second compound 10 µM, first compound 3.16 µM
[36] = second compound 10 µM, first compound 10 µM
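Also: spheroids exposed to compounds for 7 days.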

C=CC(=O)N1CCN(c2nc(=O)n(-c3c(C)ccnc3C(C)C)c3nc(-c4c(O)cccc4F)c(F)cc23)C(C)C1 (centres undefined) + Cc1cccc(N(C)C(=O)C2C(O)CCN2c2nc(C)cc(C(F)(F)F)c2C#N)c1
IC50 (second compound 0.0316 µM): > 10 µM
IC50 (second compound 0.1 µM): > 10 µM
IC50 (second compound 0.316 µM): > 10 µM
IC50 (second compound 1 µM): > 10 µM
IC50 (second compound 3.16 µM): > 10 µM
IC50 (second compound 10 µM): > 10 µM
viability, T/C [1]: 105%
viability, T/C [2]: 90.7%
viability, T/C [3]: 99.5%
viability, T/C [4]: 97.8%
viability, T/C [5]: 104%
viability, T/C [6]: 96.4%
viability, T/C [7]: 95.4%
viability, T/C [8]: 86.6%
viability, T/C [9]: 99.1%
viability, T/C [10]: 96.8%
viability, T/C [11]: 108%
viability, T/C [12]: 88.7%
viability, T/C [13]: 98.6%
viability, T/C [14]: 95%
viability, T/C [15]: 91.3%
viability, T/C [16]: 105%
viability, T/C [17]: 105%
viability, T/C [18]: 88%
viability, T/C [19]: 94.8%
viability, T/C [20]: 92.1%
viability, T/C [21]: 95.3%
viability, T/C [22]: 108%
viability, T/C [23]: 103%
viability, T/C [24]: 92.3%
viability, T/C [25]: 98.5%
viability, T/C [26]: 94.7%
viability, T/C [27]: 98.8%
viability, T/C [28]: 99.4%
viability, T/C [29]: 110%
viability, T/C [30]: 88.7%
viability, T/C [31]: 95.4%
viability, T/C [32]: 91.8%
viability, T/C [33]: 96.1%
viability, T/C [34]: 109%
viability, T/C [35]: 107%
viability, T/C [36]: 93.2%

CC(C)n1c(=O)n(C)c2cnc3cc(F)c(-c4ccc(OCCCN5CCCCC5)nc4)cc3c21 + Cc1cccc(N(C)C(=O)C2C(O)CCN2c2nc(C)cc(C(F)(F)F)c2C#N)c1
IC50 (second compound 0.0316 µM): > 10 µM
IC50 (second compound 0.1 µM): > 10 µM
IC50 (second compound 0.316 µM): > 10 µM
IC50 (second compound 1 µM): > 10 µM
IC50 (second compound 3.16 µM): > 10 µM
IC50 (second compound 10 µM): > 10 µM
viability, T/C [1]: 104%
viability, T/C [2]: 104%
viability, T/C [3]: 99.9%
viability, T/C [4]: 97.8%
viability, T/C [5]: 93.9%
viability, T/C [6]: 68.8%
viability, T/C [7]: 108%
viability, T/C [8]: 95.8%
viability, T/C [9]: 109%
viability, T/C [10]: 91.2%
viability, T/C [11]: 96.8%
viability, T/C [12]: 72.2%
viability, T/C [13]: 109%
viability, T/C [14]: 102%
viability, T/C [15]: 102%
viability, T/C [16]: 98.8%
viability, T/C [17]: 99.3%
viability, T/C [18]: 66.6%
viability, T/C [19]: 104%
viability, T/C [20]: 100%
viability, T/C [21]: 104%
viability, T/C [22]: 116%
viability, T/C [23]: 87.7%
viability, T/C [24]: 60.2%
viability, T/C [25]: 106%
viability, T/C [26]: 112%
viability, T/C [27]: 107%
viability, T/C [28]: 102%
viability, T/C [29]: 86.2%
viability, T/C [30]: 61.3%
viability, T/C [31]: 106%
viability, T/C [32]: 95.4%
viability, T/C [33]: 111%
viability, T/C [34]: 101%
viability, T/C [35]: 88.9%
viability, T/C [36]: 60.7%
